Reference: patent US7294627B2, “Chemical compounds” (Eli Lilly and Company, priority 2001, dated 2007)

Biological target: T1, human factor Xa (Homo sapiens, UniProt P00742)
T1 construct: 25 μL human factor Xa (32 nM in 0.03 M tris, 0.15 M NaCl, 1 mg/mL HSA); purchased Enzyme Research Laboratories (South Bend, Ind., USA)
Test: Enzyme inhibition assay (apparent Kass, chromogenic substrate hydrolysis)
Format: biochemical
Details: apparent association constant, human factor Xa 3.2 nM, BzIleGluGlyArgpNA substrate; 1/appKass=app Ki
Procedure: Human factor Xa and human thrombin are purchased from Enzyme Research Laboratories (South Bend, Ind., USA). Other proteases are from other commercial sources. Chromogenic para-nitroanilide peptide protease substrates are purchased from Midwest Biotech (Fishers, Ind., USA).
The binding affinities for human factor Xa are measured as apparent association constants (Kass) derived from protease inhibition kinetics as described previously.^a,b,c,d The apparent Kass values are obtained using automated (BioMek-1000) dilutions of inhibitors (Kass determinations are performed in triplicate at each of four-eight inhibitor concentrations) into 96-well plates and chromogenic substrate hydrolysis rates determined at 405 nm using a Thermomax plate reader from Molecular Devices (San Francisco). […] [Free Xa] and [bound Xa] are determined from linear standard curves on the same plate by use of SoftmaxPro software for each inhibitor concentration and apparent Kass calculated for each inhibitor concentration which produced hydrolysis inhibition between 20% and 80% of the control (3.2 nM factor Xa): apparent Kass=[E:I]/[Ef][If]=[Eb]/[Ef][I^o−I^b]. […] The variability of mean apparent Kass values determined at the single substrate concentration is +/−15%. […]

T1 sequence (P00742 235-488 limits assumed): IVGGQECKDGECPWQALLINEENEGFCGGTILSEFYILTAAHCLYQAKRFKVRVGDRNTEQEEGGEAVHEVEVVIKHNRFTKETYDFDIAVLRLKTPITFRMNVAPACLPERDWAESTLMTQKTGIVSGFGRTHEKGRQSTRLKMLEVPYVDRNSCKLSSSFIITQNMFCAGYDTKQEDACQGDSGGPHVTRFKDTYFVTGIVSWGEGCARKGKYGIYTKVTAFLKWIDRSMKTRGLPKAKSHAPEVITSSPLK
T1 sequence (P00742 41-179 partner limits assumed): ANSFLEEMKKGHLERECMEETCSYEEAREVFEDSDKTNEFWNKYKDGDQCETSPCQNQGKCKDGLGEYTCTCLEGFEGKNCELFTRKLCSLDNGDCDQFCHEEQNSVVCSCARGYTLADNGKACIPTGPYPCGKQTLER

COc1ccc(C(=O)NC(C(=O)N2CCC(CN(C)c3ccncc3)CC2)c2ccccc2Cl)cc1.Cl (racemic) [Example 7]
Kass: ~1.22e+08 L/mol
